Results: US10457710B2, “Antimicrobial peptides, their variants and uses” (priority 2015, dated 2019)
Where a SMILES comes first, the peptide text is derived from it. [ ]: non-standard residue; d: D form.

Tests used:
Assay type in all cases: cell-based
[1] = test system: C. quillermondiae; test: MIC, clinical yeast strains; conditions: clinical yeast strain 1; D-form peptide; concentrations tested 0.125 to 128 μg/ml
Summary of the method: (§1)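 For A. johnsonii, Mueller Hinton broth; for the clinical yeasts, Potato dextrose broth. In both, 5.0×10^5 cfu/ml was exposed to peptide over 0.125–128 μg/ml for 20–24 h at 37 °C, and MIC was read as the lowest concentration showing no visual growth.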

[2] = test system: clinical strains of A. johnsonii; test: MIC, microdilution, clinical strains; set-up: unit: μg/ml; conditions: Acinetobacter johnsonii strain 1, Muller Hinton broth-cation adjusted, 0.02% BSA, 0.2% acetic acid
Summary of the method: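 MIC = lowest peptide concentration without visual growth after 20–24 h at 37° C. Range 0.125–128 μg/ml, inoculum 5.0×10^5 cfu/ml, microdilution format. Antifungal tests used potato dextrose broth; bacterial tests used MH broth.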

[3] = test system: clinical strains of Acinetobacter baumannii; test: MIC, microdilution, clinical strains; set-up: unit: μg/ml; conditions: 0.02% BSA, 0.2% acetic acid
Summary of the method: (§2)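 Broth microdilution with inocula adjusted to 5.0×10^5 cfu/ml; peptides tested at 0.125 to 128 μg/ml and incubated at 37° C for 20 to 24 hours. Bacteria were grown in Mueller Hinton broth, yeasts in potato dextrose broth. MIC was the lowest concentration showing no visible growth.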

[4] = test system: clinical strains of K. pneumoniae; test: MIC, microdilution, clinical strains; conditions: 0.02% BSA, 0.2% acetic acid
Summary of the method: as §2

[5] = test system: clinical strains of E. coli; test: MIC, microdilution, clinical strains; conditions: microdilution, Muller Hinton broth-cation adjusted, 0.02% BSA, 0.2% acetic acid
Summary of the method: as §2

[6] = test system: clinical strains of Serratia marcescens; test: MIC, microdilution, clinical strains; conditions: 0.02% BSA, 0.2% acetic acid
Summary of the method: as §2

[7] = test system: clinical strains of P. aeruginosa; test: MIC, microdilution, clinical strains; conditions: 0.02% BSA, 0.2% acetic acid
Summary of the method: as §2

[8] = test system: clinical strains of E. cloacae; test: MIC, microdilution, clinical strains; conditions: 0.02% BSA, 0.2% acetic acid
Summary of the method: as §2

[9] = test system: clinical strains of Proteus mirabilis; test: MIC, microdilution, clinical strains; conditions: 0.02% BSA, 0.2% acetic acid
Summary of the method: as §2

[10] = test system: clinical strains of S. aureus; test: MIC, microdilution, clinical strains; conditions: 0.02% BSA, 0.2% acetic acid
Summary of the method: as §2

[11] = test system: clinical strains of S. pneumoniae; test: MIC, microdilution, clinical strains; conditions: 0.02% BSA, 0.2% acetic acid
Summary of the method: as §2

[12] = test system: C. parapsilosis; test: MIC, clinical yeast strains; conditions: D-form peptide, concentrations tested 0.125 to 128 μg/ml
Summary of the method: as §1

[13] = test system: C. glabrata; test: MIC, clinical yeast strains; conditions: D-form peptide, concentrations tested 0.125 to 128 μg/ml
Summary of the method: as §1

[14] = test system: Candida albicans; test: MIC, clinical yeast strains; conditions: D-form peptide, concentrations tested 0.125 to 128 μg/ml
Summary of the method: as §1

CC[C@@H](C)[C@@H](NC(=O)[C@@H](CCSC)NC(=O)[C@@H](C)NC(=O)[C@@H](CCCNC(=N)N)NC(=O)[C@@H](Cc1c[nH]c2ccccc12)NC(=O)[C@@H](CCCCN)NC(=O)[C@H](N)CCCNC(=N)N)C(=O)N[C@H](CCCNC(=N)N)C(=O)N[C@H](CC(C)C)C(=O)N[C@H](Cc1c[nH]cn1)C(=O)N[C@H](C)C(=O)N[C@H](CCCCN)C(=O)N[C@H](Cc1c[nH]c2ccccc12)C(=O)N[C@H](CC(C)C)C(=O)N[C@H](CCCNC(=N)N)C(=O)N[C@H](CCCCN)C(=O)O [Chain105D] (H-[dR][dK][dW][dR][dA][dM][dI][dR][dL][dH][dA][dK][dW][dL][dR][dK]-OH)
32: Minimum inhibitory concentration ([9]; Proteus mirabilis strain 2, Muller Hinton broth-cation adjusted) | Minimum inhibitory concentration, C. glabrata strain 4 ([13]; clinical yeast strain 4) | Minimum inhibitory concentration, Candida albicans strain 1 ([14]; clinical yeast strain 1) | Minimum inhibitory concentration, Candida albicans strain 3 ([14]; clinical yeast strain 3) | Minimum inhibitory concentration, Candida albicans strain 4 ([14]; clinical yeast strain 4) | Minimum inhibitory concentration, Candida albicans strain 5 ([14]; clinical yeast strain 5)
128: Minimum inhibitory concentration ([6]; Serratia marcescens strain 1, Muller Hinton broth-cation adjusted) | Minimum inhibitory concentration ([6]; Serratia marcescens strain 2, Muller Hinton broth-cation adjusted) | Minimum inhibitory concentration ([6]; Serratia marcescens strain 3, Muller Hinton broth-cation adjusted) | Minimum inhibitory concentration ([6]; Serratia marcescens strain 4, Muller Hinton broth-cation adjusted) | Minimum inhibitory concentration ([6]; Serratia marcescens strain 5, Muller Hinton broth-cation adjusted)
16: Minimum inhibitory concentration, C. glabrata strain 1 ([13]; clinical yeast strain 1) | Minimum inhibitory concentration, C. glabrata strain 2 ([13]; clinical yeast strain 2) | Minimum inhibitory concentration, Candida albicans strain 2 ([14]; clinical yeast strain 2)
1: Minimum inhibitory concentration ([5]; Escherichia coli strain 1) | Minimum inhibitory concentration ([5]; Escherichia coli strain 3) | Minimum inhibitory concentration ([5]; Escherichia coli strain 4) | Minimum inhibitory concentration ([8]; Enterobacter cloacae strain 5, Muller Hinton broth-cation adjusted)
2: Minimum inhibitory concentration ([3]; Acinetobacter baumannii strain 4, Muller Hinton broth-cation adjusted) | Minimum inhibitory concentration ([4]; Klebsiella pneumoniae strain 2, Muller Hinton broth-cation adjusted) | Minimum inhibitory concentration ([4]; Klebsiella pneumoniae strain 5, Muller Hinton broth-cation adjusted) | Minimum inhibitory concentration ([5]; Escherichia coli strain 5) | Minimum inhibitory concentration ([8]; Enterobacter cloacae strain 1, Muller Hinton broth-cation adjusted) | Minimum inhibitory concentration ([8]; Enterobacter cloacae strain 2, Muller Hinton broth-cation adjusted) | Minimum inhibitory concentration ([8]; Enterobacter cloacae strain 3, Muller Hinton broth-cation adjusted) | Minimum inhibitory concentration ([8]; Enterobacter cloacae strain 4, Muller Hinton broth-cation adjusted) | Minimum inhibitory concentration ([10]; Staphylococcus aureus strain 1, Muller Hinton broth-cation adjusted) | Minimum inhibitory concentration ([10]; Staphylococcus aureus strain 2, Muller Hinton broth-cation adjusted) | Minimum inhibitory concentration ([10]; Staphylococcus aureus strain 3, Muller Hinton broth-cation adjusted) | Minimum inhibitory concentration ([10]; Staphylococcus aureus strain 4, Muller Hinton broth-cation adjusted) | Minimum inhibitory concentration ([10]; Staphylococcus aureus strain 5, Muller Hinton broth-cation adjusted) | Minimum inhibitory concentration ([11]; Streptococcus pneumoniae strain 2, Muller Hinton broth-cation adjusted) | Minimum inhibitory concentration ([11]; Streptococcus pneumoniae strain 3, Muller Hinton broth-cation adjusted) | Minimum inhibitory concentration ([11]; Streptococcus pneumoniae strain 5, Muller Hinton broth-cation adjusted)
4: Minimum inhibitory concentration [2] | Minimum inhibitory concentration ([3]; Acinetobacter baumannii strain 1, Muller Hinton broth-cation adjusted) | Minimum inhibitory concentration ([3]; Acinetobacter baumannii strain 2, Muller Hinton broth-cation adjusted) | Minimum inhibitory concentration ([3]; Acinetobacter baumannii strain 3, Muller Hinton broth-cation adjusted) | Minimum inhibitory concentration ([3]; Acinetobacter baumannii strain 5, Muller Hinton broth-cation adjusted) | Minimum inhibitory concentration ([4]; Klebsiella pneumoniae strain 1, Muller Hinton broth-cation adjusted) | Minimum inhibitory concentration ([4]; Klebsiella pneumoniae strain 3, Muller Hinton broth-cation adjusted) | Minimum inhibitory concentration ([4]; Klebsiella pneumoniae strain 4, Muller Hinton broth-cation adjusted) | Minimum inhibitory concentration ([5]; Escherichia coli strain 2) | Minimum inhibitory concentration ([7]; Pseudomonas aeruginosa strain 1, Muller Hinton broth-cation adjusted) | Minimum inhibitory concentration ([7]; Pseudomonas aeruginosa strain 2, Muller Hinton broth-cation adjusted) | Minimum inhibitory concentration ([7]; Pseudomonas aeruginosa strain 3, Muller Hinton broth-cation adjusted) | Minimum inhibitory concentration ([7]; Pseudomonas aeruginosa strain 4, Muller Hinton broth-cation adjusted) | Minimum inhibitory concentration ([7]; Pseudomonas aeruginosa strain 5, Muller Hinton broth-cation adjusted) | Minimum inhibitory concentration ([11]; Streptococcus pneumoniae strain 1, Muller Hinton broth-cation adjusted) | Minimum inhibitory concentration ([11]; Streptococcus pneumoniae strain 4, Muller Hinton broth-cation adjusted) | Minimum inhibitory concentration, C. parapsilosis strain 4 ([12]; clinical yeast strain 4)
>128: Minimum inhibitory concentration ([9]; Proteus mirabilis strain 1, Muller Hinton broth-cation adjusted) | Minimum inhibitory concentration ([9]; Proteus mirabilis strain 4, Muller Hinton broth-cation adjusted) | Minimum inhibitory concentration ([9]; Proteus mirabilis strain 5, Muller Hinton broth-cation adjusted)
8: Minimum inhibitory concentration, C. quillermondiae strain 1 [1] | Minimum inhibitory concentration, C. parapsilosis strain 1 ([12]; clinical yeast strain 1) | Minimum inhibitory concentration, C. parapsilosis strain 2 ([12]; clinical yeast strain 2) | Minimum inhibitory concentration, C. parapsilosis strain 3 ([12]; clinical yeast strain 3) | Minimum inhibitory concentration, C. glabrata strain 3 ([13]; clinical yeast strain 3)
64: Minimum inhibitory concentration ([9]; Proteus mirabilis strain 3, Muller Hinton broth-cation adjusted)
